Data on nine compounds can be found in ChEMBL document CHEMBL4725289, “Structure-activity relationship studies for the development of inhibitors of murine adipose triglyceride lipase (ATGL)” (Bioorg Med Chem, 2020).

A word on the inhibition: it is the percentage by which the read-out fell short of the control. By IC50 is commonly meant the concentration that inhibits the measured activity by half. For orientation: inhibition in vivo means the share of the control response that was lost under treatment.

Each structure is given as a SMILES string. The source made the active and inactive calls. The rule behind the calls is not given here. Some results are limits rather than exact numbers.

Test [1] deals with T1, Patatin-like phospholipase domain-containing protein 2 (Mus musculus) (UniProt Q8BJ56).
T1 sequence (whole entry): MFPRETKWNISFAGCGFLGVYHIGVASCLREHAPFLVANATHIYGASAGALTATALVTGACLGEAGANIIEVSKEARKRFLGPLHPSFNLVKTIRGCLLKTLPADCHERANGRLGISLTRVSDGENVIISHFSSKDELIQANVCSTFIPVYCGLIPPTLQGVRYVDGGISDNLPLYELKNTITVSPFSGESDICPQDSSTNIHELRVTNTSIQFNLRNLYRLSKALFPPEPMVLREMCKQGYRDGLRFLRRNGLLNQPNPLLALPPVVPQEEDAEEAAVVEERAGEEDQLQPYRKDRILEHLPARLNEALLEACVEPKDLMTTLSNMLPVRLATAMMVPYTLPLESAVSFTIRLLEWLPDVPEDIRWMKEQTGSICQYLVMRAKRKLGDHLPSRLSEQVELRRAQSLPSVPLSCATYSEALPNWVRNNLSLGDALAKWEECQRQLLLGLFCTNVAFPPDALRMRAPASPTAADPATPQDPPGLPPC
Nature of the test: Inhibition of murine ATGL at 200 uM relative to control.

Test [2] has as its target T2, Patatin-like phospholipase domain-containing protein 2 (Mus musculus, UniProt Q8BJ56).
T2 sequence (Q8BJ56 whole entry): T1 sequence (whole entry)
The experiment in a line: Inhibition of murine ATGL.

Test [3] concerns the target T2, Patatin-like phospholipase domain-containing protein 2. The experiment in a line: Inhibition of murine ATGL expressed in COS-7 cells. It is filed as cell-based.
The target is the same in test [4]. The experiment in a line: Inhibition of recombinant murine ATGL expressed in Escherichia coli XL-1 lysates. It counts as subcellular.
Test [5] has as its target T1, Patatin-like phospholipase domain-containing protein 2 (Mus musculus). The experiment in a line: Inhibition of murine ATGL expressed in COS-7 cells at 200 uM relative to control. It is filed as cell-based.
For test [6] the target is unchanged. The experiment in a line: Inhibition of recombinant murine ATGL expressed in Escherichia coli XL-1 lysates at 200 uM relative to control. It counts as subcellular.
A short description of test [7]: In vivo inhibition of ATGL in mouse assessed as decrease in plasma fatty acid release at 200 uM, ip measured up to 8 hrs. It is filed as functional. Conditions: time hrs <=8.
Test [8] can be described thus: Inhibition of isoproterenol-stimulated lipolysis in ATGL-ko mouse at 200 uM, ip after 2 hrs. It is filed as functional.
A short description of test [9]: In vivo inhibition of ATGL in 12 hrs fasted mouse assessed as reduction in circulating glycerol level at 200 uM administered via oral gavage measured after 8 hrs. It counts as functional.
A short description of test [10]: In vivo inhibition of ATGL in ad libitum fed mouse assessed as reduction in circulating glycerol level at 200 uM administered via oral gavage measured after 8 hrs. It is filed as functional.
The test system of test [11] is Mus musculus. The experiment in a line: In vivo inhibition of ATGL in 12 hrs fasted mouse assessed as reduction in circulating TG level at 200 uM administered via oral gavage in presence of poloxamer measured after 8 hrs. It is filed as functional, organism-based.
The nature of test [12]: In vivo inhibition of ATGL in ad libitum fed mouse assessed as reduction in circulating fatty acid level at 200 uM administered via oral gavage measured after 8 hrs. It is filed as functional.
A short description of test [13]: In vivo inhibition of ATGL in 12 hrs fasted mouse assessed as reduction in circulating triacylglycerol level at 200 uM administered via oral gavage measured after 8 hrs. It counts as functional.
The nature of test [14]: In vivo inhibition of ATGL in 12 hrs fasted mouse assessed as reduction in circulating fatty acid level at 200 uM administered via oral gavage measured after 8 hrs. It is filed as functional.

Turning to `CCOc1ccc(-n2cc(O)c(C(=O)OC)n2)cc1`, the inhibition in test [1] was 64%. In test [2], this compound had a concentration for half-maximal inhibition (IC50) of 130 µM.

Compound `CCOc1ccc(-n2cc(O)c(C(=O)O)n2)cc1` came in with an inhibition in test [1] of 15%. Also, the IC50 in test [2] was > 200 µM.

For the compound `CCOC(=O)c1cccc(-c2ccc(CN3CCN(S(C)(=O)=O)CC3)cc2)c1`, the IC50 in [3] and in test [4] was 100 µM throughout. The inhibition in test [5] and in test [6] was 68% throughout.

The compound `CCOC(=O)c1ccn(-c2ccc(OCC)cc2)n1` came in with an inhibition in test [1] of 89%.

Regarding `CCOC(=O)c1nn(-c2ccc(OCC)cc2)cc1OC`, the inhibition in test [1] was 63%. This compound had an IC50 in test [2] of 90 µM.

As for `CCCCOC(=O)c1nn(-c2ccc(OCC)cc2)cc1O`, in test [1], the inhibition was determined as 74%. In test [2], this compound came in with an IC50 of 100 µM.

With `CCOC(=O)c1cccc(-c2ccc(N(C)C)cc2)c1`, the midpoint of inhibition in test [3], the IC50, lay at 40 µM. Further, in test [5], the inhibition stood at 87%. The inhibition in vivo at 200 µM in [7] is 40%; in [8], 60%.

In the case of `CCOC(=O)c1nn(-c2ccc(OCC)cc2)cc1O`, the inhibition in [1] worked out at 67%. Moreover, the IC50 in test [2] was 120 µM.

Take `CN(C)C(=O)Nc1cccc(-c2ccc(N(C)C)cc2)c1`: the IC50 in [3] is < 5 µM. The inhibition in vivo at 200 µM worked out at 26% in test [9]; 23% in test [10]; 27% in [12]; 37% in test [13]; 27% in test [14]. Also, the inhibition in test [5] amounted to 98%; in test [6], 99%. In addition, the inhibition result in test [11] is “Active”.
